Numbered stars: 1 amine (or outer) side, 2 acyl side, 3 side chain; on linkers, the order of the positions; unused ones are H or OH. Bridge positions count the residues as written; N and C are the ends. Square brackets hold non-standard residues; d marks the D form. Peptide text beside a SMILES is read from it. hTyr = N[CH](CCc1ccc(O)cc1)C(=O)O; NMeA = CN[CH](C)C(=O)O; CO = O=C([*:1])[*:2]

The term IC50 denotes the concentration that gives 50% inhibition. One may read the Ki as the equilibrium dissociation constant of an inhibitor or competing ligand from its target.

Common to all, as to type: biochemical
Test [1] has as its target T1, CPA (Homo sapiens, UniProt P15085).
T1 sequence (P15085 111-419): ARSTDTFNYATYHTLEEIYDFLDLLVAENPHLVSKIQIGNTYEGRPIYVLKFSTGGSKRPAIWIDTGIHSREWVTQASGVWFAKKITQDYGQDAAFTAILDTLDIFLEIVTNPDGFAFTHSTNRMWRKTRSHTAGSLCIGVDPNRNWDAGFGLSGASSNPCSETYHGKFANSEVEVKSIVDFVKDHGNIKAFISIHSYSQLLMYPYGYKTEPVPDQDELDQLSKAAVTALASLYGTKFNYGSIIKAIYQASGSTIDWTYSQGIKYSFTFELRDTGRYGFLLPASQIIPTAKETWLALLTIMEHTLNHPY
Description: Protease/carboxypeptidase panel: CPA. An excerpt:
Supplement srep32958-s1.docx, table 1: Table S1: Activities of Anabaenopeptins against a panel of proteases/carboxypeptidases. | column: CPA

Test [2] addresses T2, CPN (Homo sapiens, UniProt P15169).
T2 sequence (P15169 21-458): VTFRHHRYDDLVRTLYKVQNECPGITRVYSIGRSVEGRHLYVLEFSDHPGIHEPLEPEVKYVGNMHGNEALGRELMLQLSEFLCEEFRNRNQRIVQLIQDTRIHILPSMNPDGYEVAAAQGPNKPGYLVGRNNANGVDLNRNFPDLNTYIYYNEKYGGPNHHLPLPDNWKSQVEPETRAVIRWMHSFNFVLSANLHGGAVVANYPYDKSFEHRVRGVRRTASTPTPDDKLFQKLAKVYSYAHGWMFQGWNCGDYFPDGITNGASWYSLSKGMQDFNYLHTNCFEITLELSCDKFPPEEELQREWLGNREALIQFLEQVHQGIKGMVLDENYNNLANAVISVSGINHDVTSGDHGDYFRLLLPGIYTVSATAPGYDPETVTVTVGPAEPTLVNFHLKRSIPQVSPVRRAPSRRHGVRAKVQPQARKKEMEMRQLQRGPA
T2 sequence (P22792 22-545 partner): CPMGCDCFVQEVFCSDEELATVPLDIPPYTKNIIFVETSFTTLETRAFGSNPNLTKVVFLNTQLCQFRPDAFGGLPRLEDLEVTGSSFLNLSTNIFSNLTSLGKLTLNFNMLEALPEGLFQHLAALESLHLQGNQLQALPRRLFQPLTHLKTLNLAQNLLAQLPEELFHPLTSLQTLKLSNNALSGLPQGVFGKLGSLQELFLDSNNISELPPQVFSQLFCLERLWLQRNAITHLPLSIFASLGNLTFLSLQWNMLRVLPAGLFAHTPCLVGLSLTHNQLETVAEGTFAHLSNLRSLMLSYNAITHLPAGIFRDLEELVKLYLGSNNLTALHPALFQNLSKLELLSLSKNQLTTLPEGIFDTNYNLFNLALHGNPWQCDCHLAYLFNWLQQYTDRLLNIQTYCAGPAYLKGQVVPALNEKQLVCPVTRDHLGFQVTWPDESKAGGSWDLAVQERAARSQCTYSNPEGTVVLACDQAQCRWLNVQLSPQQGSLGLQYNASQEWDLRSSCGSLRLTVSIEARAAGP
Description: Protease/carboxypeptidase panel: CPN. Particulars: read-out: IC50 CPN. The text has this:
Supplement srep32958-s1.docx, table 1: Table S1: Activities of Anabaenopeptins against a panel of proteases/carboxypeptidases. | column: CPN

Test [3] concerns the target FXa (Homo sapiens, UniProt P00742). Description: Protease/carboxypeptidase panel: FXa. The conditions noted are these: 100 µM; read-out: Inh.@100µM in % FXa. An excerpt:
Supplement srep32958-s1.docx, table 1: Table S1: Activities of Anabaenopeptins against a panel of proteases/carboxypeptidases. | column: FXa

In test [4] the target is T3, FVIIa (Homo sapiens, UniProt P08709).
T3 sequence (P08709 213-466 limits assumed): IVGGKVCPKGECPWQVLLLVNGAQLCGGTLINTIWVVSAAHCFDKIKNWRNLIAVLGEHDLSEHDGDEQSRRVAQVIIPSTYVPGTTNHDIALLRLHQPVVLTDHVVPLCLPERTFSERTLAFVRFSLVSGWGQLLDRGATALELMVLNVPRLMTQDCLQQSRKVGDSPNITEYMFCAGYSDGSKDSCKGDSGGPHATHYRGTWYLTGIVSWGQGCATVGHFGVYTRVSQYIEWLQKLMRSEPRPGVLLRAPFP
T3 sequence (P08709 61-212 partner limits assumed): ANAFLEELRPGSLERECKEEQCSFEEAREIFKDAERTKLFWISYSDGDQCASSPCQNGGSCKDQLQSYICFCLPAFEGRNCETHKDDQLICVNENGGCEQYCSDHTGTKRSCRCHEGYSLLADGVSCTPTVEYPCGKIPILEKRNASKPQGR
Nature of the test: Protease/carboxypeptidase panel: FVIIa. The conditions noted are these: read-out: Inh.@100µM in % FVIIa. The text has this:
Supplement srep32958-s1.docx, table 1: Table S1: Activities of Anabaenopeptins against a panel of proteases/carboxypeptidases. | column: FVIIa

Test [5] has as its target FIIa (Homo sapiens, UniProt P00734). Nature of the test: Protease/carboxypeptidase panel: FIIa. The conditions noted are these: read-out: Ki FIIa. The text has this:
Supplement srep32958-s1.docx, table 1: Table S1: Activities of Anabaenopeptins against a panel of proteases/carboxypeptidases. | column: FIIa

Sequence of FXa (P00742 235-488 limits assumed): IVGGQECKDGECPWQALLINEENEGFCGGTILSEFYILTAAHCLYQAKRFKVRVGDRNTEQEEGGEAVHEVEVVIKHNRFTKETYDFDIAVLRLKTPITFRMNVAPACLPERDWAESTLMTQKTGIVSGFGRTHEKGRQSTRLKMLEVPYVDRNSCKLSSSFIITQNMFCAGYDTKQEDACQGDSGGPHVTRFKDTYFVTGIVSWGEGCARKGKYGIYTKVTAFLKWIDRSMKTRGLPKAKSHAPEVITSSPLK
Sequence of FXa (P00742 41-179 partner limits assumed): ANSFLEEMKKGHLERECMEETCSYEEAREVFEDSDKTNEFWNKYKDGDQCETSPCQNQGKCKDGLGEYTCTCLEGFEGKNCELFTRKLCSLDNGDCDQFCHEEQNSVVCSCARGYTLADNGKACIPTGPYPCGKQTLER

As to `CC(C)[C@@H]1NC(=O)[C@H](NC(=O)N[C@@H](CCCNC(=N)N)C(=O)O)CCCCNC(=O)[C@H](Cc2ccccc2)NC(=O)[C@H](C)N(C)C(=O)[C@H](CCc2ccc(O)cc2)NC1=O` [Compound 1, Anabaenopeptin B] ({Arg-CO}-[dK]V[hTyr][NMeA]F; lactam 1-C), the concentration for half-maximal inhibition (IC50) in test [1] came out at 3.9 µM; in test [2], 5.4 µM. Besides, the inhibition at 100 µM came to 22% in test [3] and 35% in test [4]. Moreover, in test [5], the Ki is 1.6 µM.

Take `CC(C)C1NC(=O)C(NC(=O)NC(CCCCN)C(=O)O)CCCCNC(=O)C(Cc2ccccc2)NC(=O)C(C)N(C)C(=O)C(CCc2ccc(O)cc2)NC1=O` (stereo not shown) [Compound 2, Anabaenopeptin C] ({Lys-CO}-KV[hTyr][NMeA]F; lactam 1-C; configuration not given here): the inhibition at 100 µM in test [1] (100 µM, read-out: Inh.@100µM in % CPA) worked out at 31%; in test [3], 42%; in test [4], 36%. The IC50 in test [2] was 5.7 µM. The Ki in test [5] was determined as 6 µM.

Values taken from paper PMC5015106 (Scientific Reports, 2016).
